# Experimental data reported in article PMC10743905, “Design, Synthesis, and In Vitro and In Vivo Bioactivity Studies of Hydrazide–Hydrazones of 2,4-Dihydroxybenzoic Acid” (International Journal of Molecular Sciences, 2023).
# Like-named read-outs stand apart in the source and are kept apart here.
# How the values were obtained:
# [1] = tested on: Bacillus subtilis ATCC 6633; assay: Broth microdilution MIC/MBC; type: cell-based; conditions: for MBC: ATCC6633
# From the text: Detailed procedures are presented in the Supplementary Materials. […]
# (§1) In vitro antimicrobial activity assays - Methodology
# (§2) The examined compounds 1 - 24 were screened in vitro for antibacterial and antifungal activities using the broth microdilution method according to procedure reported earlier by our research group and European Committee on Antimicrobial Susceptibility Testing (EUCAST) and Clinical and Laboratory Standards Institute (CLSI) guidelines against a panel of reference and clinical or saprophytic strains of microorganisms, in-cluding Gram-positive bacteria, Staphylococcus aureus ATCC 43300 (Methicillin Resistant S. aureus – MRSA), Staphylococcus aureus ATCC 29213 (Methicillin Susceptible S. aureus – MSSA), Staphylococcus epidermidis ATCC 12228, Enterococcus faecalis ATCC 29212, Micro-coccus luteus ATCC 10240, Bacillus subtilis ATCC 6633 and Bacillus cereus ATCC 10876), Gram-negative bacteria (Bordetella bronchiseptica ATCC 4617, Escherichia coli ATCC 25922, Klebsiella pneumoniae ATCC 13883, Proteus mirabilis ATCC 12453, Salmonella typhimurium ATCC 14028 and Pseudomonas aeruginosa ATCC 9027) and fungi belonging to yeasts (Can-dida albicans ATCC 10231, Candida albicans ATCC 2091, Candida parapsilosis ATCC 22019, Candida glabrata ATCC 90030 and Candida krusei ATCC 14243). The microorganisms be-longing to ATCC came from American Type Culture Collection, routinely used for the evaluation of antimicrobials. All the used microbial cultures were first subcultured on nu-trient agar or Sabouraud agar at 35°C for 18-24 h or 30°C for 24-48 h for bacteria and fungi, […]
# (§3) The surface of Mueller-Hinton agar (for bacteria) and RPMI 1640 with MOPS (for fungi) were inoculated with the suspensions of bacterial or fungal species. Microbial suspensions were prepared in sterile saline with an optical density of McFarland standard scale 0.5.
# (§4) Samples containing examined compounds were dissolved in dimethyl sulfoxide (DMSO).
# (§5) Furthermore, bacterial and fungal suspensions were put onto Petri dishes with solid me-dia containing 2 mg/mL of the tested compounds followed incubation at 37°C for 24h and 30°C for 48h for bacteria and fungi, respectively. The inhibition of microbial growth was judged by comparison with a control culture prepared without any sample tested. Ciprof-loxacin, vancomycin, nitrofurantoin, cefuroxime, ampicillin or nystatin (Sigma) were used as a reference antibacterial or antifungal compounds, respectively.
# (§6) Subsequently, the MIC (Minimal Inhibitory Concentration) of the compounds was ex-amined by the microdilution broth method, using their two-fold dilutions in Mueller- […]
# (§7) Hinton broth or (for bacteria) and RPMI 1640 broth with MOPS (for fungi) prepared in 96-well polystyrene plates. Final concentrations of the compounds ranged from 1000 to 0.488 µg/ml. Microbial suspensions were prepared in 0.85% NaCl with an optical density of 0.5 McFarland standard. Next each bacterial or fungal suspension was added per each well containing broth and various concentrations of the examined compounds. After incuba-
# [2] = tested on: Micrococcus luteus ATCC 10240; assay: Broth microdilution MIC/MBC; type: cell-based; conditions: for MBC: ATCC10240
# From the text: as §1
# as §2, with “antimicrobials.” for “antimicrobials. All the used microbial cultures were first subcultured on nu-trient agar or Sabouraud agar at 35°C for 18-24 h or 30°C for 24-48 h for bacteria and fungi,”
# (§8) Samples containing examined compounds were dissolved in dimethyl sulfoxide (DMSO). […]
# as §6, §7
# [3] = tested on: Staphylococcus epidermidis ATCC 12228; assay: Broth microdilution MIC/MBC; type: cell-based
# From the text: as §1
# as §2, with “antimicrobials.” for “antimicrobials. All the used microbial cultures were first subcultured on nu-trient agar or Sabouraud agar at 35°C for 18-24 h or 30°C for 24-48 h for bacteria and fungi,”
# as §8, §6, §7
# [4] = tested on: Bacillus cereus ATCC 10876; assay: Broth microdilution MIC/MBC; type: cell-based
# From the text: as §1, §2, §3, §4, §5, §6, §7
# [5] = tested on: Salmonella typhimurium ATCC 14028; assay: Broth microdilution MIC/MBC; type: cell-based; conditions: for MBC / MIC: Salmonella enterica
# From the text: as §1
# as §2, with “antimicrobials.” for “antimicrobials. All the used microbial cultures were first subcultured on nu-trient agar or Sabouraud agar at 35°C for 18-24 h or 30°C for 24-48 h for bacteria and fungi,”
# as §8, §6, §7
# [6] = tested on: Proteus mirabilis ATCC 12453; assay: Broth microdilution MIC/MBC; type: cell-based; conditions: ATCC12453
# From the text: as §1
# as §2, with “antimicrobials.” for “antimicrobials. All the used microbial cultures were first subcultured on nu-trient agar or Sabouraud agar at 35°C for 18-24 h or 30°C for 24-48 h for bacteria and fungi,”
# as §8, §6, §7
# [7] = tested on: Staphylococcus aureus ATCC 43300; assay: Broth microdilution MIC/MBC; type: cell-based; conditions: Staphylococcus aureus ATCC 43300 (MRSA)
# From the text: as §1
# as §2, with “antimicrobials.” for “antimicrobials. All the used microbial cultures were first subcultured on nu-trient agar or Sabouraud agar at 35°C for 18-24 h or 30°C for 24-48 h for bacteria and fungi,”
# as §8, §6, §7
# [8] = tested on: Pseudomonas aeruginosa ATCC 9027; assay: Broth microdilution MIC/MBC; type: cell-based; conditions: ATCC9027
# From the text: as §1
# as §2, with “antimicrobials.” for “antimicrobials. All the used microbial cultures were first subcultured on nu-trient agar or Sabouraud agar at 35°C for 18-24 h or 30°C for 24-48 h for bacteria and fungi,”
# as §8, §6, §7
# [9] = tested on: Staphylococcus aureus ATCC 29213; assay: Broth microdilution MIC/MBC; type: cell-based
# From the text: as §1
# as §2, with “antimicrobials.” for “antimicrobials. All the used microbial cultures were first subcultured on nu-trient agar or Sabouraud agar at 35°C for 18-24 h or 30°C for 24-48 h for bacteria and fungi,”
# as §8, §6, §7
# [10] = tested on: Bordetella bronchiseptica ATCC 4617; assay: Broth microdilution MIC/MBC; type: cell-based; conditions: ATCC4617
# From the text: as §1, §2, §3, §4, §5, §6, §7
# [11] = tested on: Enterococcus faecalis ATCC 29212; assay: Broth microdilution MIC/MBC; type: cell-based
# From the text: as §1, §2, §3, §4, §5, §6, §7
# [12] = tested on: Klebsiella pneumoniae ATCC 13883; assay: Broth microdilution MIC/MBC; type: cell-based; conditions: ATCC13883
# From the text: as §1, §2, §3, §4, §5, §6, §7
# [13] = tested on: Escherichia coli ATCC 25922; assay: Broth microdilution MIC/MBC; type: cell-based; conditions: ATCC25922
# From the text: as §1, §2, §3, §4, §5, §6, §7
# [14] = tested on: Candida parapsilosis ATCC 22019; assay: Broth microdilution MIC/MFC; type: cell-based
# From the text: as §1, §2, §3, §4, §5, §6, §7
# [15] = tested on: Candida krusei ATCC 14243; assay: Broth microdilution MIC/MFC; type: cell-based
# From the text: as §1, §2, §3, §4, §5, §6, §7
# [16] = tested on: Candida albicans ATCC 2091; assay: Broth microdilution MIC/MFC; type: cell-based
# From the text: as §1, §2, §3, §4, §5, §6, §7
# [17] = tested on: Candida albicans ATCC 10231; assay: Broth microdilution MIC/MFC; type: cell-based
# From the text: as §1, §2, §3, §4, §5, §6, §7
# [18] = tested on: Candida glabrata ATCC 90030; assay: Broth microdilution MIC/MFC; type: cell-based
# From the text: as §1, §2, §3, §4, §5, §6, §7
structure (smiles),measurement,setting,value
"CC1(C)S[C@@H]2[C@H](NC(=O)[C@H](N)c3ccccc3)C(=O)N2[C@H]1C(=O)O [APC, ampicillin, reference compound]",MIC,[1],62.5 µg/mL
same,MIC,"[1]; ATCC6633, read-out: MIC",62.5 µg/mL
"CO/N=C(\C(=O)N[C@@H]1C(=O)N2C(C(=O)O)=C(COC(N)=O)CS[C@H]12)c1ccco1 [CFX, cefuroxime, reference compound]",MIC,[2],0.98 µg/mL
same,MIC,"[2]; ATCC10240, read-out: MIC",0.98 µg/mL
same,MIC,"[3]; ATCC12228, read-out: MIC",0.24 µg/mL
same,MIC,[1],15.62 µg/mL
same,MIC,"[1]; ATCC6633, read-out: MIC",15.6 µg/mL
same,MIC,[4],31.25 µg/mL
same,MIC,"[4]; ATCC10876, read-out: MIC",31.2 µg/mL
"O=C(O)c1cn(C2CC2)c2cc(N3CCNCC3)c(F)cc2c1=O [CIP, ciprofloxacin, reference compound]",MBC/MIC,[5],1
same,MBC,[5],0.06 µg/mL
same,MIC,[5],0.06 µg/mL
"Cc1ccccc1/C=N/NC(=O)c1ccc(O)cc1O [Compound 1, 2,4-dihydroxy-N-[(2-methylphenyl)methylidene]benzohydrazide]",MBC/MIC,[2],> 2
same,MBC,[2],> 1000 µg/mL
same,MIC,"[2]; ATCC10240, read-out: MIC",500 µg/mL
same,MIC,[6],> 1000 µg/mL
same,MBC,[7],> 1000 µg/mL
same,MBC/MIC,[7],> 1
same,MIC,[7],1000 µg/mL
same,MIC,[5],> 1000 µg/mL
same,MIC,"[3]; ATCC12228, read-out: MIC",> 1000 µg/mL
same,MIC,[8],> 1000 µg/mL
same,MBC/MIC,[9],> 1
same,MBC,[9]; ATCC29213,> 1000 µg/mL
same,MIC,[9]; ATCC29213,1000 µg/mL
same,MBC/MIC,[1],> 2
same,MBC,[1],> 1000 µg/mL
same,MIC,"[1]; ATCC6633, read-out: MIC",500 µg/mL
same,MIC,[10],> 1000 µg/mL
same,MIC,"[4]; ATCC10876, read-out: MIC",> 1000 µg/mL
same,MBC/MIC,[11],> 1
same,MBC,"[11]; ATCC29212, read-out: MBC",> 1000 µg/mL
same,MIC,"[11]; ATCC29212, read-out: MIC",1000 µg/mL
same,MIC,[12],> 1000 µg/mL
same,MIC,[13],> 1000 µg/mL
same,melting point,,250 °C
same,MIC,"[14]; Lodderomyces parapsilosis, ATCC22019, read-out: MIC",> 1000 µg/mL
same,MIC,"[15]; Pichia kudriavzevii, ATCC14243, read-out: MIC",> 1000 µg/mL
same,MIC,"[16]; ATCC2091, read-out: MIC",> 1000 µg/mL
same,MIC,"[17]; ATCC10231, read-out: MIC",> 1000 µg/mL
same,MIC,"[18]; Nakaseomyces glabratus, ATCC90030, read-out: MIC",> 1000 µg/mL
"O=C1CN(/N=C/c2ccc([N+](=O)[O-])o2)C(=O)N1 [NIT, nitrofurantoin, reference compound]",MIC,[2],62.5 µg/mL
same,MBC,[2],62.5 µg/mL
same,MIC,"[2]; ATCC10240, read-out: MIC",62.5 µg/mL
same,MBC,[6],125 µg/mL
same,MIC,[6],62.5 µg/mL
same,MBC,[7],15.6 µg/mL
same,MIC,[7],7.81 µg/mL
same,MBC,[5],62.5 µg/mL
same,MIC,[5],31.2 µg/mL
same,MIC,[3],3.91 µg/mL
same,MBC,[3]; ATCC12228,7.81 µg/mL
same,MIC,"[3]; ATCC12228, read-out: MIC",3.91 µg/mL
same,MIC,[1],3.91 µg/mL
same,MBC,[1],3.91 µg/mL
same,MIC,"[1]; ATCC6633, read-out: MIC",3.91 µg/mL
same,MBC,[10],> 1000 µg/mL
same,MIC,[10],125 µg/mL
same,MIC,[4],7.81 µg/mL
same,MBC,[4]; ATCC10876,15.6 µg/mL
same,MIC,"[4]; ATCC10876, read-out: MIC",7.81 µg/mL
same,MBC,[12],31.2 µg/mL
same,MIC,[12],15.6 µg/mL
same,MBC,[13],15.6 µg/mL
same,MIC,[13],7.81 µg/mL
"C[C@@H]1[C@H](O)[C@@H](C)/C=C/C=C/CC/C=C/C=C/C=C/C=C/C(O[C@H]2O[C@H](C)[C@@H](O)[C@H](N)[C@@H]2O)CC2O[C@](O)(CC(O)C(O)CCC(O)CC(O)CC(O)CC(=O)O[C@H]1C)CC(O)C2C(=O)O (some centres unmarked) [NY, nystatin, reference compound]",MFC,[14],0.48 µg/mL
same,MFC/MIC,[14],2
same,MIC,[14],0.24 µg/mL
same,MFC,[15],0.24 µg/mL
same,MFC/MIC,[15],1
same,MIC,[15],0.24 µg/mL
same,MFC,[16],0.24 µg/mL
same,MFC/MIC,[16],1
same,MIC,[16],0.24 µg/mL
same,MFC,[17],0.48 µg/mL
same,MFC/MIC,[17],1
same,MIC,[17],0.48 µg/mL
same,MFC,[18],0.48 µg/mL
same,MFC/MIC,[18],2
same,MIC,[18],0.24 µg/mL
"CN[C@H](CC(C)C)C(=O)N[C@H]1C(=O)N[C@@H](CC(N)=O)C(=O)N[C@H]2C(=O)N[C@H]3C(=O)N[C@H](C(=O)N[C@H](C(=O)O)c4cc(O)cc(O)c4-c4cc3ccc4O)[C@H](O)c3ccc(c(Cl)c3)Oc3cc2cc(c3O[C@@H]2O[C@H](CO)[C@@H](O)[C@H](O)[C@H]2O[C@H]2C[C@](C)(N)[C@H](O)[C@H](C)O2)Oc2ccc(cc2Cl)[C@H]1O [VA, vancomycin, reference compound]",MBC,[11],1.95 µg/mL
same,MBC/MIC,[11],2
same,MIC,[11],0.98 µg/mL
